Calls of active or inactive are those of the source.
Legend:
[1] = molecular target: Heat shock protein HSP 90-alpha (Homo sapiens, UniProt P07900); type: functional, organism-based
[2] = inhibitors acting on PAX2 in cells – cell-based, plate reader, dry powder samples, selectivity assay for PAX8 inhibitor project, dose response (AID 743048); type: functional;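 note: HEK293 cells carrying a WT1 promoter luciferase reporter driven by expressed Pax2; potency is for inhibition of Pax2 driven reporter signal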
[3] = COV362 cell viability loss – plate reader, dry powder, SA12, cytotoxicity control for PAX8 inhibitor project, dose response (AID 743144); type: functional, cell-based
HEK293 [4] = experiment: SAR Analysis of small molecule inhibitors of T-cell specific antigen receptor-induced NF-kB activation in a HEK-293T cell line using a luminescence assay - Set 2. [Related pubchem assays (depositor defined):AID435003, AID435012, AID489026]; type: functional, cell-based; conditions: Homo sapiens
[5] = OV-90 cell viability loss – plate reader, dry powder, SA8, PAX8 inhibitor project, dose response (AID 743149); type: functional, cell-based
HEK293 [6] = experiment: HEK293T cell viability loss, resazurin readout – resazurin fluorescence, cytotoxicity control for NF-kB activator project, SAR follow-up (AID 493251); type: functional, cell-based; conditions: Homo sapiens
[7] = COV434 cell viability loss – plate reader, dry powder, SA7, cytotoxicity control for PAX8 inhibitor project, dose response (AID 743145); type: functional, cell-based
[8] = reduction of Shn3 3'UTR-driven luciferase in osteoblasts – cell-based, Clone20 osteoblasts, firefly luciferase, cherry-picked, dose response (AID 624132); type: functional;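 note: firefly luciferase luminescence from reporter carrying the Shn3 3'UTR in osteoblasts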
Jurkat = experiment: SAR Analysis of small molecule inhibitors of T-cell specific antigen receptor-induced NF-kB activation in a Jurkat cell line using a luminescence assay - Set 2. [Related pubchem assays (depositor defined):AID435003, AID435012, AID465]; type: functional, cell-based; conditions: Homo sapiens
[9] = molecular target: T1, Serine/threonine-protein phosphatase (Candida dubliniensis (strain CD36 / CBS 7987 / NCPF 3949 / NRRLY-17841) (Yeast), UniProt B9W6M3); experiment: blockers of CaCl2-induced CDRE-lacZ signaling – S. cerevisiae, luminescence, secondary, dose response (AID 2388); type: functional, cell-based;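 note: yeast reporter cells carrying a calcineurin-responsive lacZ construct stimulated with calcium chloride; luminescent beta-galactosidase reporter signal in whole cells rather than isolated phosphatase activity; potency for inhibition where a drop in reporter signal means calcineurin blockade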
T1 sequence (B9W6M3 whole entry): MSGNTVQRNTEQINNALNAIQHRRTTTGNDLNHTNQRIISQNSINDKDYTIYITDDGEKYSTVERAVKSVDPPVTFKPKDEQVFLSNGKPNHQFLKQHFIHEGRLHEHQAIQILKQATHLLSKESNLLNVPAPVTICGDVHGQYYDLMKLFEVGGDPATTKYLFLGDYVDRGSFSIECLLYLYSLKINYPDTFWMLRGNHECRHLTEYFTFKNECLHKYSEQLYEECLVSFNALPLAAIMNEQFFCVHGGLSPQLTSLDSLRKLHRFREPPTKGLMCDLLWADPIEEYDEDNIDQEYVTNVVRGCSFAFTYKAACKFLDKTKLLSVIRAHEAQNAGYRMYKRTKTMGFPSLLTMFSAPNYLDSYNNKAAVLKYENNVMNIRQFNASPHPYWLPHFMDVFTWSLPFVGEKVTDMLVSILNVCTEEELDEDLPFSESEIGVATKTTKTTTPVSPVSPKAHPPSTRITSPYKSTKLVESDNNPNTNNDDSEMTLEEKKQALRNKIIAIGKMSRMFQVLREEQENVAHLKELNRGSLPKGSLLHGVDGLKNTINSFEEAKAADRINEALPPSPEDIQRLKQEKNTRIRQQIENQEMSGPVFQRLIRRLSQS

HT-1080 = experiment: HT1080 cell viability loss – fluorescence readout (AID 620); type: functional, cell-based; conditions: Homo sapiens
[10] = microbe, parasite or virus in culture; type: functional; conditions: Mycobacterium tuberculosis
[11] = blockers of HIV-1 envelope-mediated cell-cell fusion – cherry-pick, dose response (AID 652057); type: functional, cell-based
[12] = viability loss in CEM21 cells – cell-based, CellTiter-Glo luminescence, cherry-picked, cytotoxicity control for viral fusion inhibitor project, dose response (AID 652042); type: functional;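 note: potency for signal decrease meaning cytotoxicity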
Caspase-6 = molecular target: T2, Caspase-6 (Homo sapiens, UniProt P55212); experiment: inhibition of CASP6 peptide cleavage – biochemical, VEID-R110 fluorescence, cherry-pick, dose response (AID 720632)
T2 sequence (P55212 whole entry): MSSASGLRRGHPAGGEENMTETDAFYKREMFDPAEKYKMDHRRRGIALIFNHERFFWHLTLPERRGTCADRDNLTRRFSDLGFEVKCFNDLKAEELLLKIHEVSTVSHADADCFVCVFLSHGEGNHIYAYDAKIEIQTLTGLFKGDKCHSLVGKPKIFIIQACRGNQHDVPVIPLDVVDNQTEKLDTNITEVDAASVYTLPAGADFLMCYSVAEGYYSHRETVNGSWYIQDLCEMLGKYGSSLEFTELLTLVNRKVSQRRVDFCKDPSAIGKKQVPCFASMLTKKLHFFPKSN

[13] = molecular target: T3, Sentrin-specific protease 8 (Homo sapiens, UniProt Q96LD8); type: functional
T3 sequence (Q96LD8 whole entry): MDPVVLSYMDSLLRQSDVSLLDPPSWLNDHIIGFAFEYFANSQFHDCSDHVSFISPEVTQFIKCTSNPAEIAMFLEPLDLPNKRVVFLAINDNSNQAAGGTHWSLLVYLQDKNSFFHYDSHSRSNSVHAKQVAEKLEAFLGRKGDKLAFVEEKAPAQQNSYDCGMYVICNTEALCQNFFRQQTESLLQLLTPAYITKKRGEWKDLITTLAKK

[14] = MIN6 cell viability loss – mouse insulinoma, cytotoxicity control, dose response (AID 2122); type: functional;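 note: confirmatory high-throughput counterscreen run to flag cytotoxic compounds; mouse MIN-6 beta cells carrying an insulin promoter eGFP reporter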
[15] = HGIII-sPLA2 enzyme inhibition potency – biochemical, QFRET, IC50, dose response (AID 743457);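 note: green fluorescence rise as the enzyme cleaves BODIPY PC-A2 in liposomes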
[16] = luciferase reporter signal suppression in cells – H4 neuroglioma cells, luminescence, dose response (AID 1990); type: functional, cell-based
[17] = Luminescence Cell-Based Dose Response HTS to Identify Inhibitors of 5'UTR Stem-Loop Driven Prion Protein mRNA Translation in H4 Neuroglioblastoma Cells. [Related pubchem assays: 1827 (Project Summary), 1813 (Primary HTS)]; type: functional
[18] = molecular target: T4, Alkaline phosphatase, tissue-nonspecific isozyme (Homo sapiens, UniProt P05186); experiment: activation of tissue-nonspecific alkaline phosphatase – biochemical, TNAP isozyme, human IAP uHTS hits, selectivity assay for human IAP activator project, dose response (AID 488886); type: functional;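 note: potency of compounds raising TNAP activity as a selectivity check on IAP activators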
T4 sequence (P05186 whole entry): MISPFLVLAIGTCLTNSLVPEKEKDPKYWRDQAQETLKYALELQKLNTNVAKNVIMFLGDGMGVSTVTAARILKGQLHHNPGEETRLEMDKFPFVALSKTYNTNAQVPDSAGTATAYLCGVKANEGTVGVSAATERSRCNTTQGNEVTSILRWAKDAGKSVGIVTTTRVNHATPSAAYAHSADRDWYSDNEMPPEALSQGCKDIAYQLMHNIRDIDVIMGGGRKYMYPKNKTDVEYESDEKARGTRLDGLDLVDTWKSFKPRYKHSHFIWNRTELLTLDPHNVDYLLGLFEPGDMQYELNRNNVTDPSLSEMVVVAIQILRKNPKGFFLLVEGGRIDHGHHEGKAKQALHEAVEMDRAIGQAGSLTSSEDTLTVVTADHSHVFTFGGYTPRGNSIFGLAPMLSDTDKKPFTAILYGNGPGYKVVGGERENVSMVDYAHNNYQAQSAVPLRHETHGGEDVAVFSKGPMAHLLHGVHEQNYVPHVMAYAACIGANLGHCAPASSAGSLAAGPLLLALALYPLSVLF

CCCCC(=O)NC(c1ccccc1)c1ccc2cccnc2c1O (stereo unspecified)
AC50 [1]: 25.5 µM (active) | AC50 [2]: 2.15 µM (active) | AC50 [3]: 3.28 µM (active) | IC50 (HEK293 [4]): 8.62 µM (active) | AC50 [5]: 3.88 µM (active) | IC50 (HEK293 [6]): 10.6 µM (active) | AC50 [7]: 4.16 µM (active) | AC50 [8]: 2.35 µM (active) | IC50 (Jurkat): 5.62 µM (active) | EC50 [9]: > 180 µM (inactive)

CC(=O)N(Cc1ccc(F)cc1)C1=C(NCCc2ccccc2)C(=O)c2ccccc2C1=O
EC50 (HT-1080): 15.6 µM (active) | CC50 [10]: 10.9 µM (active) | AC50 [11]: 2.45 µM (active) | AC50 [12]: 2.16 µM (active)

O=C(N/N=C1\C/C(=N\NC(=O)c2ccncc2)c2ccccc21)c1ccncc1
AC50 (Caspase-6): 749 nM (active) | IC50 [13]: 5.02 µM (active)

O=C(/C=C/c1cccs1)NC(=S)NNC(=O)c1ccccc1O
IC50 [14]: 2.57 µM (active) | IC50 [15]: > 122 µM (inactive) | EC50 [16]: > 120 µM (not active) | EC50 [17]: 9.65 µM (active) | EC50 [18]: 11.8 µM (active)

Source: ChEMBL document CHEMBL1201862, “PubChem BioAssay data set” (2004)
